This note sets out measurements from patent US7893088B2, “6-substituted isoquinoline derivatives” (N.V. Organon, priority 2006, dated 2011).

A value given as a limit tells only on which side of the number the result lay.

The target in the assay is recombinant human ROCK-I (Homo sapiens, UniProt Q13464). The assay is described as follows: biochemical. The note with it: IMAP fluorescence polarisation, dose response curve, read-out: plC50 (the source's name). As for the experimental part: Following a one hour incubation at room temperature in the dark, enzyme activity is detected by adding 60 μl of IMAP binding reagent (Molecular Devices) to each well.
In general terms: Fluorescence polarisation rises when a labelled molecule tumbles more slowly, as on binding a larger partner.

Chain of recombinant human ROCK-I (Q13464 whole entry): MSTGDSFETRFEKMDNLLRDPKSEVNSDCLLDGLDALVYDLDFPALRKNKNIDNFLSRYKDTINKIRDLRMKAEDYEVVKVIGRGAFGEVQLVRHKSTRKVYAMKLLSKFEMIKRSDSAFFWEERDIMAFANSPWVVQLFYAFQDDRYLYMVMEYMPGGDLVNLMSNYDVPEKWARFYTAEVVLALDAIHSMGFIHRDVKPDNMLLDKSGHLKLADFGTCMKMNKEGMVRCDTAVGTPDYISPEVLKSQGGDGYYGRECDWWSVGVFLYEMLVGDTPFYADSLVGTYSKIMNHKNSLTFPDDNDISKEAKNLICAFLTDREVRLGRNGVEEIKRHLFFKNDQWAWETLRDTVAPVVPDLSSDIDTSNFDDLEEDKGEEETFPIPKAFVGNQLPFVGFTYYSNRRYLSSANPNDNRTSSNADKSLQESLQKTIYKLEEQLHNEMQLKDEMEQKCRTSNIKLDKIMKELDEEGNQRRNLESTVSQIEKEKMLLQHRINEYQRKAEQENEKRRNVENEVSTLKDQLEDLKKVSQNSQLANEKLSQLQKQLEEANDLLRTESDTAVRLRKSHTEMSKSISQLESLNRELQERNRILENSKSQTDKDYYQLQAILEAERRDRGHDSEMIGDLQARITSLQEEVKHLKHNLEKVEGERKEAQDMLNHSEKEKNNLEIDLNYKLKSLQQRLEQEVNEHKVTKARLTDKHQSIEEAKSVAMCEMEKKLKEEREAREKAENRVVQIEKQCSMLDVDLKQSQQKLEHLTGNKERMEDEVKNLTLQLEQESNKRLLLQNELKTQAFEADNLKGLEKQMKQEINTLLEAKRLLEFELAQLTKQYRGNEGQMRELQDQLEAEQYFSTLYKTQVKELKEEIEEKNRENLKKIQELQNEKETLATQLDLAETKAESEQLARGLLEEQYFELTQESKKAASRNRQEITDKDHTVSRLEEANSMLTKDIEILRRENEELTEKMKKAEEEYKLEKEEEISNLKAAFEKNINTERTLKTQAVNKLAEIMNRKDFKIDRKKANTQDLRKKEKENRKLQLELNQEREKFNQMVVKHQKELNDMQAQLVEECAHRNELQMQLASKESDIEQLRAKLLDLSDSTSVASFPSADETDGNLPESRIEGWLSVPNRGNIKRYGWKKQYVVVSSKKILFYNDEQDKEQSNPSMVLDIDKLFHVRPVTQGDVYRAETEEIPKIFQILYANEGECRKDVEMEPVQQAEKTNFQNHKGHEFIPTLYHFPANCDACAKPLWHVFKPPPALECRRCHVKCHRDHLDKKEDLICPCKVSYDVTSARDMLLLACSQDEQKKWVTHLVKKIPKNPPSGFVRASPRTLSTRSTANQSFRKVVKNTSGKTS

As to `Nc1nccc2cc(S[C@H]3CC[C@@H](N)CC3)ccc12` [Example 4, Cis-6-(4-aminocyclohexylsulfanyl)isoquinolin-1-ylamine], the IC50 is below 316 nM.
